Experimental data published in publication PMC3368261, “Substituted aminopyrimidine protein kinase B (PknB) inhibitors show activity against Mycobacterium tuberculosis” (Bioorganic & Medicinal Chemistry Letters, 2012).
Values after ≈ are worked out from the molar mass of the structure shown. Like-named read-outs stand apart in the source and are kept apart here.

Assays:
PknB = PknB (Mycobacterium tuberculosis, UniProt P9WI81); test: PknB enzyme inhibition, in vitro phosphorylation of the substrate GarA; assay type: biochemical
M. tuberculosis = test: Alamar blue cellular assay against M. tuberculosis (MIC); assay type: cell-based; details: Mycobacterium tuberculosis
physchem = assay type: physicochemical
[1] = test system: 76-member human kinase panel; assay type: biochemical; details: 10 μM inhibitor concentration, 76 kinases
[2] = assay conditions described in Ref. [8] (Table 5: Ref. [10]), read-out: PknB IC50

PknB, sequence (P9WI81 whole entry): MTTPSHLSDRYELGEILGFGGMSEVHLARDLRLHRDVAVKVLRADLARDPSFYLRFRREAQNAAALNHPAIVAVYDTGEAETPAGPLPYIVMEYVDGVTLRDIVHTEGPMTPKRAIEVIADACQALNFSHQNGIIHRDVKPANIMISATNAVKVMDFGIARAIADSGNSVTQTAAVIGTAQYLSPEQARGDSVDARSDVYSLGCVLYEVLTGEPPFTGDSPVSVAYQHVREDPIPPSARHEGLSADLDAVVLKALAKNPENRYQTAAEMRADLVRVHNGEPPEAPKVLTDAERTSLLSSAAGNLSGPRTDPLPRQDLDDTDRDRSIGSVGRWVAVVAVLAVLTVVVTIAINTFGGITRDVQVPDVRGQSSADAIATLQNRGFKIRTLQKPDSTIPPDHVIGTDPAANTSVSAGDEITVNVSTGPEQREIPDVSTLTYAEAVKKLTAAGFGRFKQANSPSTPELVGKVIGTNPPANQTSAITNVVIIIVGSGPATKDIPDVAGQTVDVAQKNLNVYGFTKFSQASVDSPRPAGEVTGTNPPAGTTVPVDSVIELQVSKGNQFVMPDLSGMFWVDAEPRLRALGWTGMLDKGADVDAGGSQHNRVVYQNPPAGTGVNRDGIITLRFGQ

| SMILES | IC50 (PknB; [2]) [nM] | MIC (M. tuberculosis) [µM] | other results |
| --- | --- | --- | --- |
| Cc1cc(Nc2nc(-c3ccncc3)nc3ccccc23)n[nH]1 [Compound 1] | – | – | IC50 (PknB; high throughput screen, GarA phosphorylation, read-out: PknB inhibition (HTS hit)): 1350 nM |
| c1ccc2c(Nc3cc(C4CC4)[nH]n3)nc(-c3ccncc3)nc2c1 [Compound 5a] | – | – | improvement in PknB binding affinity (PknB): fourfold improvement in binding affinity; IC50 (PknB; read-out: PknB IC50): 322 nM |
| Fc1ccc(-c2nc(Nc3cc[nH]n3)c3ccccc3n2)cc1 [Compound 5b] | 453 | – | – |
| Cc1cc(Nc2nc(-c3ccc(F)cc3)nc3ccccc23)n[nH]1 [Compound 5c] | 1160 | – | – |
| Fc1ccc(-c2nc(Nc3cc(C4CC4)[nH]n3)c3ccccc3n2)cc1 [Compound 5d] | 223 | – | – |
| c1ccc(-c2nc(Nc3cc(C4CC4)[nH]n3)c3ccccc3n2)cc1 [Compound 5e] | 440 | – | – |
| c1ccc2c(Nc3cc(C4CC4)[nH]n3)nc(NC3CCCCC3)nc2c1 [Compound 5f] | – | – | IC50 (PknB; read-out: PknB IC50): 107 nM |
| c1ccc2c(Nc3cc(C4CC4)[nH]n3)nc(NCC3CC3)nc2c1 [Compound 5g] | 428 | – | – |
| Fc1ccc(-c2nccc(Nc3cc(C4CC4)[nH]n3)n2)cc1 [Compound 8a] | 375 | > 500 | – |
| NC(=O)c1cccc(-c2nccc(Nc3cc(C4CC4)[nH]n3)n2)c1 [Compound 8b] | 384 | 63 (≈ 20.2 µg/mL) | – |
| CS(=O)(=O)Nc1cccc(-c2nccc(Nc3cc(C4CC4)[nH]n3)n2)c1 [Compound 8c] | 393 | 31 (≈ 11.5 µg/mL) | – |
| CS(=O)(=O)c1cccc(-c2nccc(Nc3cc(C4CC4)[nH]n3)n2)c1 [Compound 8d] | 86 | 63 (≈ 22.4 µg/mL) | – |
| CS(=O)(=O)NCc1ccc(-c2nccc(Nc3cc(C4CC4)[nH]n3)n2)cc1 [Compound 8e] | 241 | 63 (≈ 24.2 µg/mL) | – |
| N#Cc1cccc(-c2nccc(Nc3cc(C4CC4)[nH]n3)n2)c1 [Compound 8f] | – | 125 (≈ 37.8 µg/mL) | IC50 (PknB; read-out: PknB IC50): 87 nM |
| c1cncc(-c2nccc(Nc3cc(C4CC4)[nH]n3)n2)c1 [Compound 8g] | 202 | 125 (≈ 34.8 µg/mL) | – |
| c1cc(Nc2cc(C3CC3)[nH]n2)nc(NC2CCCCC2)n1 [Compound 8h] | 84 | 63 (≈ 18.8 µg/mL) | – |
| CC(C)CCNc1nccc(Nc2cc(C3CC3)[nH]n2)n1 [Compound 8i] | 354 | 63 (≈ 18 µg/mL) | – |
| c1ccc(CNc2nccc(Nc3cc(C4CC4)[nH]n3)n2)cc1 [Compound 8j] | 715 | 125 (≈ 38.3 µg/mL) | – |

| SMILES | IC50 (PknB; [2]) [nM] | MIC (M. tuberculosis) [µM] | other results |
| --- | --- | --- | --- |
| Fc1cccc(CCNc2nccc(Nc3cc(C4CC4)[nH]n3)n2)c1 [Compound 8k] | – | 63 (≈ 21.3 µg/mL) | IC50 (PknB; read-out: PknB IC50): 74 nM |
| Clc1ccccc1CCNc1nccc(Nc2cc(C3CC3)[nH]n2)n1 [Compound 8l] | 64 | 125 (≈ 44.4 µg/mL) | – |
| c1cc(Nc2cc(C3CC3)[nH]n2)nc(NCC2CC2)n1 [Compound 8m] | – | 250 (≈ 67.6 µg/mL) | IC50 (PknB; read-out: PknB IC50): 217 nM |
| c1cc(Nc2cc(C3CC3)[nH]n2)nc(NC2CCCC2)n1 [Compound 8n] | 115 | 63 (≈ 17.9 µg/mL) | – |
| CN(C)CCNc1cc(Nc2cc(C3CC3)[nH]n2)nc(-c2ccccc2)n1 [Compound 11a] | 88 | 125 (≈ 45.4 µg/mL) | logD (physchem): 3.7 |
| CN1CCN(c2cc(Nc3cc(C4CC4)[nH]n3)nc(-c3ccccc3)n2)CC1 [Compound 11b] | 121 | 63 (≈ 23.7 µg/mL) | logD (physchem): 3.6 |
| CN1CCC(CNc2cc(Nc3cc(C4CC4)[nH]n3)nc(-c3ccccc3)n2)CC1 [Compound 11c] | – | 31 (≈ 12.5 µg/mL) | IC50 (PknB; read-out: PknB IC50): 55 nM; logD (physchem): 2.3 |
| CN1CCC(Nc2cc(Nc3cc(C4CC4)[nH]n3)nc(-c3ccccc3)n2)CC1 [Compound 11d] | 73 | 31 (≈ 12.1 µg/mL) | logD (physchem): 2.3 |
| CN(C)[C@@H]1CCN(c2cc(Nc3cc(C4CC4)[nH]n3)nc(-c3ccccc3)n2)C1 [Compound 11e] | 53 | 16 (≈ 6.23 µg/mL) | logD (physchem): 3.8 |
| c1ccc(-c2nc(Nc3cc(C4CC4)[nH]n3)cc(OCCN3CCCC3)n2)cc1 [Compound 11f] | 56 | 31 (≈ 12.1 µg/mL) | logD (physchem): 3.4 |
| CN(C)[C@@H]1CCN(c2cc(Nc3cc(C4CC4)[nH]n3)nc(-c3cccc(C#N)c3)n2)C1 [Compound 15a] | 56 | 63 (≈ 26.1 µg/mL) | – |
| CN(C)CCNc1cc(Nc2cc(C3CC3)[nH]n2)nc(-c2cccc(C#N)c2)n1 [Compound 15b] | 39 | 63 (≈ 24.5 µg/mL) | gain in PknB enzyme affinity (PknB): approximately twofold |
| CN1CCC(CNc2cc(Nc3cc(C4CC4)[nH]n3)nc(-c3cccc(C#N)c3)n2)CC1 [Compound 15c] | 23 | 31 (≈ 13.3 µg/mL) | gain in PknB enzyme affinity (PknB): approximately twofold |
| CN1CCC(CNc2cc(Nc3cc(C4CC4)[nH]n3)nc(-c3cccc(S(C)(=O)=O)c3)n2)CC1 [Compound 15d] | – | 63 (≈ 30.3 µg/mL) | IC50 (PknB; read-out: PknB IC50): 40 nM |
| CN(C)[C@@H]1CCN(c2cc(Nc3ccccn3)nc(-c3cccc(C#N)c3)n2)C1 [Compound 16a] | 1990 | 31 (≈ 11.9 µg/mL) | – |
| COc1ccnc(Nc2cc(N3CC[C@@H](N(C)C)C3)nc(-c3ccccc3)n2)c1 [Compound 16b] | 1130 | 31 (≈ 12.1 µg/mL) | – |
| CN(C)[C@@H]1CCN(c2cc(Nc3cc(Cl)ccn3)nc(-c3ccccc3)n2)C1 [Compound 16c] | 176 | 8 (≈ 3.16 µg/mL) | kinase selectivity against human kinase panel [1]: improvement in selectivity relative to 11e |
| CN(C)[C@@H]1CCN(c2cc(Nc3cc(C(F)(F)F)ccn3)nc(-c3cccc(C#N)c3)n2)C1 [Compound 16d] | – | 16 (≈ 7.26 µg/mL) | IC50 (PknB; read-out: PknB IC50): 40 nM |
